Assay results taken from publication PMC12642047, “Marine-derived Acremonium strain prioritization using untargeted metabolomics approach for the identification of cytotoxic cyclic depsipeptides” (BMC Biotechnology, 2025).
Read-outs that look alike come from different tables or passages of the source. *1 amine or outer side, *2 acyl side, *3 side chain or, on linkers, in order; H or OH if unused. Where a SMILES comes first, the peptide text is derived from it. [ ]: non-standard residue; d: D form. ξ: configuration not given here. Pentanoyl(2-O,4-OH,5-Cl) = O=C(O)C(O)CC(O)CCl; NMeI = CC[CH](C)[CH](NC)C(=O)O; X1 = CC1CCN([*:1])C1C(=O)[*:2]; ξLac(3-iPr) = CC(C)CC(O)C(=O)O; NMeA = CN[CH](C)C(=O)O; βAla = NCCC(=O)O

Tests used:
[1] = system: A2058 (human melanoma); assay: MTS cytotoxicity assay (CellTiter 96 AQueous One), compounds, 72 h; format: cell-based; settings: A2058 cells
Experimental: (§1) Compounds 1 − 5 were tested for their cytotoxic effects against several cancer cell lines, including MOLM-13 (acute myeloid leukemia), MV-4-11 (biphenotypic B myelomonocytic leukemia), THP-1 (acute monocytic leukemia), A2058 (human melanoma), MCF7 (human breast adenocarcinoma), and non-cancerous MRC-5 (normal lung fibroblast) using an MTS based CellTiter 96® AQueous One Solution Assay. In short, the cells were cultured in appropriate media supplemented with 10% fetal bovine serum (FBS): MOLM-13, MV-4-11 cells in RPMI medium, THP-1 cells in RPMI medium with ultra-low endotoxin FBS, MCF7 and MRC-5 in MEM Eagle medium along with other amino acid supplements, and A2058 cells in DMEM medium. After harvesting, they were seeded into 96-well plates. The cells were then treated with the test compounds at various concentrations and incubated for 72 h. Following the incubation period, an MTS assay was conducted, and the absorbance of the solution was measured using a microplate reader spectrophotometer (Tecan spark plate reader) at a wavelength of 490 nm. The half-maximum inhibitory concentration (IC50) values were calculated using the drc_3.0–1 package in R (Supplementary page S60-S61). DMSO (10%) was used as the positive control, and cell culture media as the negative control. All samples were tested in triplicate.
(§2) The results were plotted in a dose-response curve as shown in Figure S97 and the half-maximum inhibitory concentration (IC50) values were calculated using R. A 4-parameter logistic (4PL) dose-response model was applied to analyse the relationship between the concentration and the observed response (absorbance at 490 nm). […] The model was fitted to the experimental data using the drm function from the drc_3.0-1 package in R and IC50 values were determined as the concentration (μM) corresponding to 50% cell survival.

[2] = system: MCF7 (human breast adenocarcinoma); assay: as above; format: cell-based; settings: MCF7 cells
Experimental: as §1, §2

[3] = system: MOLM-13 (acute myeloid leukemia); assay: as above; format: cell-based; settings: Homo sapiens, MOLM-13 cells
Experimental: as §1, §2

[4] = system: MRC-5 (normal lung fibroblast); assay: as above; format: cell-based; settings: Homo sapiens, MRC5, MRC-5 normal lung fibroblasts
Experimental: as §1, §2

[5] = system: MV-4-11 (biphenotypic B myelomonocytic leukemia); assay: as above; format: cell-based; settings: Homo sapiens, MV4-11, MV-4-11 cells
Experimental: as §1, §2

[6] = system: THP-1 (acute monocytic leukemia); assay: as above; format: cell-based; settings: Homo sapiens, THP-1 cells
Experimental: as §1, §2

[7] = system: insects; set-up: method as in doi:10.1021/np9601216; settings: cited from earlier work
[8] = system: PDGF-BB/PDGFR-ββ signalling; set-up: method as in PMID 27322468; settings: cited from earlier work
[9] = system: MCF7; set-up: method as in PMID 30572686; settings: read-out: IC50 MCF7 (previously reported), cited from earlier work
[10] = system: HL-60 (acute promyelocytic leukemia); set-up: method as in PMID 30572686; settings: HL-60 cells; read-out: IC50 HL-60 (previously reported); cited from earlier work
[11] = system: erythropoietin gene expression; set-up: method as in PMID 9514014; settings: cited from earlier work
[12] = system: plants; settings: cited from earlier work

SMILES | IC50 [1] | IC50 [2] | IC50 [3] | IC50 [4] | IC50 [5] | IC50 [6] | Entomopathogenic activity [7] | Inhibition of PDGF-BB/PDGFR-ββ signalling [8] | IC50 ([1]; value marked * expressed in nM) | IC50 ([2]; value marked * expressed in nM) | IC50 ([9]; MCF7 cell line) | IC50 ([9]; MCF7 cells) | IC50 [10] | Erythropoietin gene expression [11] | Phytotoxic activity [12]
CCC(C)C1NC(=O)C2C(C)CCN2C(=O)C(CC(C)C)OC(=O)CCNC(=O)C(C)N(C)C(=O)C(C(C)CC)N(C)C1=O (stereo not shown) [Compound 5, homodestcardin] (cyclo([X1]I[NMeI][NMeA][βAla][ξLac(3-iPr)]); configuration not given here) | 2600 nM | 2100 nM | 3600 nM | 5600 nM | 12500 nM | 16000 nM |  |  |  |  |  |  |  |  | 
C=CCC1OC(=O)CCNC(=O)C(C)N(C)C(=O)C(C(C)CC)N(C)C(=O)C(C(C)CC)NC(=O)C2C(C)CCN2C1=O (stereo not shown) [Compound 3, destruxin-A5] | 6600 nM | 5200 nM | 3000 nM | 15200 nM | 7200 nM | 8700 nM | entomopathogenic activity | selectively inhibit |  |  |  |  |  |  | 
CCC(C)C1NC(=O)C2C(C)CCN2C(=O)C(CC(O)CCl)OC(=O)CCNC(=O)C(C)N(C)C(=O)C(C(C)CC)N(C)C1=O (stereo not shown) [Compound 2, trichomide D] (cyclo([X1]I[NMeI][NMeA][βAla][Pentanoyl(2-O,4-OH,5-Cl)]); configuration not given here) |  |  | 500 nM | 1200 nM | 800 nM | 2100 nM |  |  | 40 nM | 40 nM | 79 nM | 79 nM | 107 nM |  | 
CCC(C)C1NC(=O)C2CCCN2C(=O)C(CC(O)CCl)OC(=O)CCNC(=O)C(C)N(C)C(=O)C(C(C)CC)N(C)C1=O (stereo not shown) [Compound 1, destruxin-A4 chlorohydrin] (cyclo([Pentanoyl(2-O,4-OH,5-Cl)]PI[NMeI][NMeA][βAla]); configuration not given here) | 1100 nM | 800 nM | 400 nM | 2200 nM | 700 nM | 2200 nM |  |  |  |  |  |  |  | induced erythropoietin gene expression | 
CCC(C)C1NC(=O)C2CCCN2C(=O)C(CC(C)C)OC(=O)CCNC(=O)C(C)N(C)C(=O)C(C(C)CC)N(C)C1=O (stereo not shown) [Compound 4, homodestruxin B] (cyclo([ξLac(3-iPr)]PI[NMeI][NMeA][βAla]); configuration not given here) | 30200 nM | 12300 nM | 5500 nM | > 40000 nM | 14600 nM | 16200 nM |  |  |  |  |  |  |  |  | phytotoxic activity
